The series is described as follows: in vivo pharmacokinetics in mice, intravenous and oral. Further details: species or system mouse.

As for `CCC(=O)N1CCN(c2ccc(-n3c(=O)ccc4cnc5ccc(-c6cnc7ccccc7c6)cc5c43)cc2C(F)(F)F)CC1` [Compound 1, 1-(4-(4-propionylpiperazin-1-yl)-3-(trifluoromethyl)phenyl)-9-(quinolin-3-yl)benzo[h][1,6]naphthyridin-2(1H)-one], the “oral bioavailability, in words” value (oral administration) is listed as “very limited oral bioavailability”.

Turning to `Nc1ccc(-c2ccc3ncc4ccc(=O)n(-c5cccc(C(F)(F)F)c5)c4c3c2)cn1` [Compound 3, 9-(6-aminopyridin-3-yl)-1-(3-(trifluoromethyl)phenyl)benzo[h][1,6]naphthyridin-2(1H)-one], under “oral, comparison with ref 22”, the “improvement of bioavailability compared to compound 1” value is on record as “approximately 10 fold”.

The values are drawn from publication PMC3090687 (Journal of medicinal chemistry, 2011).
